Tests used:
[1] = target: T1, staphopain A (Staphylococcus aureus, UniProt P81297); assay: Selectivity profile, staphopain A; assay type: biochemical; details: read-out: inhibition at 0.1 mM, Staphopain A
T1 construct: purchased BioCentrum Ltd
Description: (§1) Inhibitory activity was tested in reaction mixtures (0.1 ml) containing 2% (v/v) DMSO vehicle±compound plus additions as follows. V8 protease: 90 mM MOPS (sodium) buffer pH 7.0, […] calcium chloride, 0.045% Brij 35, 10 μM Mca-Leu-Glu-Val-Asp-Gly-Trp-Lys(Dnp)-amide (Bachem) and V8 (BioCentrum Ltd; 30 ng). Staphopain A and B: 90 mM MOPS (sodium) buffer pH 7.0, 1.8 mM cysteine-HCl (pH-adjusted with NaOH), 0.045% Brij 35, 0.1 mM Z-Phe-Arg-AMC hydrochloride (Bachem) and staphopain A or B (BioCentrum Ltd; 30 ng). Human kallikrein 5: 0.1M sodium phosphate buffer pH 8.0, 0.045% Brij 35, 0.1 mM Boc-Val-Pro-Arg-AMC (Sigma) and recombinant human kallikrein 5 (R&D Systems Inc; 6 ng). Human kallikrein 7: 72 mM Tris-HCl pH 8.0, 0.033% Brij 35, 1.2 mM S-2586 (Chromogenix Instrumentation Laboratory SpA) and recombinant human kallikrein 7 (R&D Systems Inc; 0.6 μg) that had been thermolysin-activated according to the manufacturer's instructions. Human angiotensin-converting enzyme (ACE): 45 mM MES (sodium) buffer pH 6.5, 0.045% Brij 35, 10 μM Mca-[…]Dnp)-OH(R&D Systems Inc) and recombinant human ACE (R&D Systems Inc; 1.3 ng). Human cathepsin D: 0.1M sodium acetate buffer pH 3.5, 0.2M sodium chloride, 0.045% Brij 35, 10 μM Mca-Pro-Leu-Gly-Leu-Dap(Dnp)-Ala-Arg-amide (Bachem) and recombinant human cathepsin D (R&D Systems Inc; 8 ng) activated according to the manufacturer's instructions. […]

[2] = target: T2, V8 protease (Staphylococcus aureus, UniProt P0C1U8); assay: Selectivity profile, V8 protease; assay type: biochemical; details: read-out: inhibition at 0.1 mM, V8 protease
T2 construct: purchased BioCentrum Ltd
T2 sequence (P0C1U8 69-336): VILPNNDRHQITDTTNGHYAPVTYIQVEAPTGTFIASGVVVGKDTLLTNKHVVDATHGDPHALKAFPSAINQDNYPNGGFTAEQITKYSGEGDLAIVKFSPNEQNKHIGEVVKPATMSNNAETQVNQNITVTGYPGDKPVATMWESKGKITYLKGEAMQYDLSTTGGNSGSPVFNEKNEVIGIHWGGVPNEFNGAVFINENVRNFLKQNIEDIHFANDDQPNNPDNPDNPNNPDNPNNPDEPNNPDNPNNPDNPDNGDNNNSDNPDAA
Description: as §1

[3] = target: T3, recombinant human ADAM17 (Homo sapiens, UniProt P78536); assay: Selectivity profile, ADAM17; assay type: biochemical
T3 construct: purchased R&D Systems Inc
T3 sequence (P78536 215-824): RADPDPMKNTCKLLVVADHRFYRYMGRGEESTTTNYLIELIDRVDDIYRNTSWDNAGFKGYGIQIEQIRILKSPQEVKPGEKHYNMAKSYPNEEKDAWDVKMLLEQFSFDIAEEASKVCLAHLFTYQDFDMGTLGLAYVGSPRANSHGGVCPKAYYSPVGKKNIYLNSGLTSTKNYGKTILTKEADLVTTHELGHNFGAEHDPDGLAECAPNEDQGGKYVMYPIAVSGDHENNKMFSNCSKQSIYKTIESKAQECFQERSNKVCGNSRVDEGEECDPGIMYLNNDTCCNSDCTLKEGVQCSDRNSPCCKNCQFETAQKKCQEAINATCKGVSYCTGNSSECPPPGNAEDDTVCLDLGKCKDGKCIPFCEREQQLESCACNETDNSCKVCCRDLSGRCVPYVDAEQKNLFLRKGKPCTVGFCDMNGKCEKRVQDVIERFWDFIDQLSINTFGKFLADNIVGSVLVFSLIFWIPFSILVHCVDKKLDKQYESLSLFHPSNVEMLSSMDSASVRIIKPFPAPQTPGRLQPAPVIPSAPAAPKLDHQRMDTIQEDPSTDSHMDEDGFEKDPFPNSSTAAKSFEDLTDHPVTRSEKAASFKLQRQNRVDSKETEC

[4] = tested on: S. aureus 8325-4; assay: S. aureus viability, viable cell counts; assay type: cell-based, Staphylococcus aureus; details: 50 μM compound; 16 h at 37° C.
Description: Brain heart infusion medium (5 ml; Becton Dickinson and Co.) containing 10% skimmed milk and 1% (v/v) DMSO vehicle ±50 μM compound was inoculated with S. aureus 8325-4 (approximately 10^7 cells in tryptic soy broth) and incubated for 16 h at 37° C./220 rpm. Duplicate samples (0.1 ml) were then removed from each culture, diluted into PBS, spread onto brain heart infusion agar (1.5%) and incubated at 37° C.

[5] = target: T4, human MMP-9 (Homo sapiens, UniProt P14780); assay: MMP enzyme inhibition assay, MMP-9; assay type: biochemical; details: pH 7.5, 37° C., 1 hour
T4 construct: purchased Calbiochem
T4 sequence (P14780 94-707): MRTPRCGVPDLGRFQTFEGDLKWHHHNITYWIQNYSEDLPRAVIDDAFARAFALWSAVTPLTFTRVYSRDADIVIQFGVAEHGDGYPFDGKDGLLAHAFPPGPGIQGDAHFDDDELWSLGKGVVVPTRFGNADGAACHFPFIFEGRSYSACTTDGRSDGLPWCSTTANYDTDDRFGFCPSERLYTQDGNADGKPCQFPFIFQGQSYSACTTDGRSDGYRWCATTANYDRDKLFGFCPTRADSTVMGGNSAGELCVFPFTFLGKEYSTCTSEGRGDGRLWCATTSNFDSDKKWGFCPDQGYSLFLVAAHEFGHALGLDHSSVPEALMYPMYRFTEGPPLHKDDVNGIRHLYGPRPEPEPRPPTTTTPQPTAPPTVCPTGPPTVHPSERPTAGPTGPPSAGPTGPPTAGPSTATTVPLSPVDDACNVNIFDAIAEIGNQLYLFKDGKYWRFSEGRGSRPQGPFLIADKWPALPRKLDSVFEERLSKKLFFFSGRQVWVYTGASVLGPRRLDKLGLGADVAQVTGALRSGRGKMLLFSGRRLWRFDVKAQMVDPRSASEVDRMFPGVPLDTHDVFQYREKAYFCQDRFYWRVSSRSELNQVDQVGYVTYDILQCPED

[6] = target: T5, metalloprotease (aureolysin) activity in Staphylococcus aureus 8325-4 culture supernatants (Staphylococcus aureus, UniProt P81177); assay: Metalloprotease activity in S. aureus culture supernatants; assay type: biochemical
T5 construct: 4 μl S. aureus culture supernatant; endogenous in cells; host or cells: Staphylococcus aureus 8325-4 (culture supernatant)
Description: The culture was then centrifuged to remove the cells and the supernatant stored at −70° C. for subsequent use. […] Activity was expressed as the rate of increase in fluorescence as a function of time.

[7] = target: T6, human MMP-2 (Homo sapiens, UniProt P08253); assay: MMP enzyme inhibition assay, MMP-2; assay type: biochemical; details: pH 7.5, 37° C., 1 hour
T6 construct: purchased Calbiochem
T6 sequence (P08253 110-660): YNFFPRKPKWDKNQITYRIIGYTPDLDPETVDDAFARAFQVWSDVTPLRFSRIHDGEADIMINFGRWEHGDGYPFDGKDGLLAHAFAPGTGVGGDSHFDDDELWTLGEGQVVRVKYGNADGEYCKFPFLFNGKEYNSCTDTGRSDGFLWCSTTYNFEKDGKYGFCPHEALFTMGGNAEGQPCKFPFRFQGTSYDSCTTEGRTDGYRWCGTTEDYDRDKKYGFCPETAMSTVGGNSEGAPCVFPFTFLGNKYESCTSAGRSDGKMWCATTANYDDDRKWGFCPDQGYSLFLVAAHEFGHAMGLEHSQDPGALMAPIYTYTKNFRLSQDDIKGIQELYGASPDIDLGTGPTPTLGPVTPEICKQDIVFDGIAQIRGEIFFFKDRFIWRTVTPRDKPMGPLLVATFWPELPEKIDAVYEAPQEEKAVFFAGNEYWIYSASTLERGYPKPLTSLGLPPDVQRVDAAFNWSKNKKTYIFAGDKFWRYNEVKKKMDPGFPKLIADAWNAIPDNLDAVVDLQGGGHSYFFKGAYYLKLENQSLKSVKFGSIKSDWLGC

[8] = target: T7, purified aureolysin type II (Staphylococcus aureus, UniProt P81177); assay: Aureolysin enzyme inhibition assay, type II; assay type: biochemical; details: pH 6.8, 37° C., 1 hour; read-out: IC50 value Aureolysin type II
T7 sequence (P81177 1-509): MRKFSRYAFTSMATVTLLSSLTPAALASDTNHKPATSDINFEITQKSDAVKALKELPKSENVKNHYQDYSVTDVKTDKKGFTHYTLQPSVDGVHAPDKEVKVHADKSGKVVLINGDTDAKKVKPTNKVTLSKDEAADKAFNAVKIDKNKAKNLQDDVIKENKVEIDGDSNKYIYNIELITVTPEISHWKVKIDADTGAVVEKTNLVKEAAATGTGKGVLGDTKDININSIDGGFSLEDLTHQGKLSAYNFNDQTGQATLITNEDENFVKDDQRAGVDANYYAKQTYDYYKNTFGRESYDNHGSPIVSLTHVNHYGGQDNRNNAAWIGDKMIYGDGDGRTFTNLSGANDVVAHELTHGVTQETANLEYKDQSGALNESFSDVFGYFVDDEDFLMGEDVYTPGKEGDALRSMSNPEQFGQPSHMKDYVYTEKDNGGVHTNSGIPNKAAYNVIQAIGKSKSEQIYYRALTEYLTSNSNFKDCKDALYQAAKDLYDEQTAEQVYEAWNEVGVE

T1 sequence (P81297 215-388): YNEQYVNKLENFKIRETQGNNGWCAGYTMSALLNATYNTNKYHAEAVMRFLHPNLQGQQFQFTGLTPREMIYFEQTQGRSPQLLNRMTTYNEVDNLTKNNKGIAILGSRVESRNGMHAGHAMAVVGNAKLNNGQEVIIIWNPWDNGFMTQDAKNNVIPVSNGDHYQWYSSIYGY

Compound	inhibition at 100 µM [1]	inhibition at 100 µM [2]	IC50 [3]	Viable cell counts, Cells/ml [4]	IC50 [5]	IC50 [6]	IC50 [7]	IC50 [8]
CNC(=O)[C@@H](NC(=O)[C@@H](CC(=O)NO)CC(C)C)C(C)(C)C [Compound 11, (R)—N1-((S)-3,3-dimethyl-1-(methylamino)-1-oxobutan-2-yl)-N4-hydroxy-2-isobutylsuccinamide]	5%	0%	25 nM	1.6 × 10^9 Cells/ml	3.6 nM	3700 nM	1.9 nM	2400 nM
CNC(=O)[C@@H](NC(=O)[C@H](CC(=O)NO)CC(C)C)C(C)(C)C [Compound 12, (S)—N1-((S)-3,3-dimethyl-1-(methylamino)-1-oxobutan-2-yl)-N4-hydroxy-2-isobutylsuccinamide]	0%	0%	79000 nM	1.3 × 10^9 Cells/ml	4600 nM	4300 nM	2700 nM	2200 nM
